Assay results from the supplement of paper PMC13380429.

How the values were obtained:
Settings in all cases: 72 h
Calu-3 [1] = assay: drug sensitivity score (DSS) for viability; higher = more toxic; extreme values may be limits of the assay
HepG2 [2] = assay: as above
Vero E6 [3] = assay: as above
U2OS [4] = assay: as above
Caco-2 [5] = assay: as above
Calu-3 [6] = assay: relative viability EC50 (midpoint between 100% and the lowest measured viability); higher = less toxic
HepG2 [7] = assay: as above
Vero E6 [8] = assay: as above
U2OS [9] = assay: as above
Calu-3 [10] = assay: cell viability relative to DMSO; higher = less toxic
HepG2 [11] = assay: as above
Vero E6 [12] = assay: as above
U2OS [13] = assay: as above
Caco-2 [14] = assay: as above
Caco-2 [15] = assay: relative viability EC50 (midpoint between 100% and the lowest measured viability); higher = less toxic

SMILES	drug sensitivity score (Calu-3 [1])	drug sensitivity score (HepG2 [2])	drug sensitivity score (Vero E6 [3])	drug sensitivity score (U2OS [4])	drug sensitivity score (Caco-2 [5])	relative viability EC50 (Calu-3 [6])	relative viability EC50 (HepG2 [7])	relative viability EC50 (Vero E6 [8])	relative viability EC50 (U2OS [9])	cell viability (Calu-3 [10]; 1 nM)	cell viability (Calu-3 [10]; 10 nM)	cell viability (Calu-3 [10]; 100 nM)	cell viability (Calu-3 [10]; 1000 nM)	cell viability (Calu-3 [10]; 10000 nM)	cell viability (HepG2 [11]; 1 nM)	cell viability (HepG2 [11]; 10 nM)	cell viability (HepG2 [11]; 100 nM)	cell viability (HepG2 [11]; 1000 nM)	cell viability (HepG2 [11]; 10000 nM)	cell viability (Vero E6 [12]; 1 nM)	cell viability (Vero E6 [12]; 10 nM)	cell viability (Vero E6 [12]; 100 nM)	cell viability (Vero E6 [12]; 1000 nM)	cell viability (Vero E6 [12]; 10000 nM)	cell viability (U2OS [13]; 1 nM)	cell viability (U2OS [13]; 10 nM)	cell viability (U2OS [13]; 100 nM)	cell viability (U2OS [13]; 1000 nM)	cell viability (U2OS [13]; 10000 nM)	cell viability (Caco-2 [14]; 1 nM)	cell viability (Caco-2 [14]; 10 nM)	cell viability (Caco-2 [14]; 100 nM)	cell viability (Caco-2 [14]; 1000 nM)	cell viability (Caco-2 [14]; 10000 nM)	relative viability EC50 (Caco-2 [15])
O=C(c1ccc(F)c(F)c1Nc1ccc(I)cc1F)N1CC(O)([C@@H]2CCCCN2)C1 [cobimetinib]	11.9	24.5	13	7.4	8.3	0.238 µM	0.0341 µM	0.0591 µM	1.43 µM	93.2%	86.6%	81.4%	50.1%	32.7%	94.3%	86.7%	32.8%	24.5%	17.1%	90.2%	86.1%	72.9%	50.2%	45.7%	96.5%	94.5%	94.3%	75.8%	23.6%	89.5%	82.8%	84.8%	69.1%	63.1%	
CN1CCN(c2ccc(C(=O)Nc3n[nH]c4ccc(Cc5cc(F)cc(F)c5)cc34)c(NC3CCOCC3)c2)CC1 [entrectinib]	9	9.7	8.7		8.3	1.6 µM	1.45 µM	1.76 µM		96.7%	95.8%	98.5%	76.9%	1.7%	104%	100%	102%	71.9%	0.1%	98.5%	101%	99.4%	80.5%	0.3%						98.7%	97%	100%	81.2%	5.3%	1.74 µM
NC(=O)NCCN1CCN(c2cccc(C(F)(F)F)c2)CC1 [fluprazine]	0	0	0	0	2	> 10 µM	> 10 µM	> 10 µM	> 10 µM	105%	97.6%	101%	91.7%	99.5%	93.3%	112%	110%	97.7%	109%	103%	99.5%	110%	110%	104%	102%	103%	94.3%	101%	99.9%	107%	86.5%	85.3%	96.8%	72.3%	
O=C1OCCN1/N=C/c1ccc([N+](=O)[O-])o1 [furazolidone]	0	0.8	0	0	0.1	> 10 µM		> 10 µM	> 10 µM	111%	97.6%	100%	101%	110%	99.3%	104%	102%	111%	70.5%	106%	97.8%	105%	98.2%	97.4%	101%	93.2%	97.1%	96.6%	96.5%	101%	90.2%	95.6%	93.6%	86.1%	> 10 µM
O[C@H]1[C@H](O)[C@@H](O)[C@H](O)[C@@H](O)[C@H]1O [inositol]	0	0	0	0	1	> 10 µM	> 10 µM	> 10 µM	> 10 µM	112%	94.6%	104%	96.1%	100%	123%	102%	105%	93.3%	98.8%	110%	101%	98.1%	99.4%	99.5%	106%	104%	96.7%	103%	101%	95.8%	111%	91%	105%	69.8%	
Cc1ccc(C(=O)N(CCCN)[C@@H](c2nc3cc(Cl)ccc3c(=O)n2Cc2ccccc2)C(C)C)cc1 [ispinesib]	6.9	25.4	19.5	19.4	12.1	2.29 µM	0.0173 µM	0.029 µM	0.0446 µM	97.3%	88.5%	90.8%	90%	5.4%	98.7%	55.8%	38.7%	40%	18.8%	103%	94%	42.4%	40.8%	38.1%	104%	92.1%	47.6%	43.2%	31.3%	93.7%	81.5%	68.8%	64%	63.1%	
Cc1cccc(C)c1NC(=O)CN1CCN(CCCC(c2ccc(F)cc2)c2ccc(F)cc2)CC1 [lidoflazine]	0	1	0.2	0	1.1	> 10 µM	> 10 µM	> 10 µM	> 10 µM	106%	113%	112%	102%	88.4%	99.5%	109%	108%	96.2%	80.9%	117%	106%	102%	98.2%	87.4%	105%	103%	101%	107%	92.7%	83.7%	99.5%	84.9%	105%	68.2%	
C[C@H](CCC(=O)O)[C@H]1CC[C@H]2[C@@H]3CC[C@@H]4C[C@H](O)CC[C@]4(C)[C@H]3CC[C@]12C [lithocholic-acid]	0	0	0		0	> 10 µM	> 10 µM	> 10 µM		98.9%	91.2%	98.2%	93.3%	105%	102%	96.4%	108%	90.2%	111%	102%	101%	102%	101%	98.7%						106%	96.9%	101%	98%	99%	> 10 µM
CC[C@H](C)C(=O)O[C@H]1C[C@@H](C)C=C2C=C[C@H](C)[C@H](CC[C@@H]3C[C@@H](O)CC(=O)O3)[C@H]21 [lovastatin]	0.2	0.1	0	2.8	0	> 10 µM	> 10 µM	> 10 µM		87.8%	106%	96.3%	111%	81.6%	91.2%	109%	96.4%	92.3%	88.7%	100%	100%	96.2%	102%	88.1%	94.1%	108%	96.2%	96.6%	55.4%	92.2%	85.7%	84.2%	106%	101%	> 10 µM
Cc1c(N(C)CS(=O)(=O)O)c(=O)n(-c2ccccc2)n1C [metamizole]	0	0	0		0	> 10 µM	> 10 µM	> 10 µM		106%	90.6%	102%	95.7%	91.1%	99.9%	109%	100%	91.6%	102%	97.5%	97.1%	95.6%	102%	101%						98.5%	107%	101%	104%	104%	> 10 µM
COC(=O)C1=C(C)NC(C)=C(C(=O)OC)C1c1ccccc1[N+](=O)[O-] [nifedipine]	0	0	0	0	1.3	> 10 µM	> 10 µM	> 10 µM	> 10 µM						95.7%	84.8%	96.8%	117%	102%	99.5%	103%	106%	101%	94.9%	104%	102%	103%	100%	96.6%	112%	100%	90.4%	96.8%	76.8%	> 10 µM
Nc1nc2[nH]cc(CCc3ccc(C(=O)N[C@@H](CCC(=O)O)C(=O)O)cc3)c2c(=O)[nH]1 [pemetrexed]	3.7	11.8	6.5	1.4	1.2	> 10 µM	0.558 µM	0.768 µM		108%	91.9%	86.6%	83.3%	76%	85.4%	100%	97.3%	39.4%	20.1%	85.2%	99.1%	91.6%	70.9%	45%	103%	95.5%	107%	100%	68%	105%	86.8%	87.4%	96.5%	79.3%	> 10 µM
CC[C@H]1OC(=O)[C@@](C)(F)C(=O)[C@H](C)[C@@H](O[C@@H]2O[C@H](C)C[C@H](N(C)C)[C@H]2O)[C@](C)(OC)C[C@@H](C)C(=O)[C@H](C)[C@H]2N(CCCCn3cc(-c4cccc(N)c4)nn3)C(=O)O[C@]12C [solithromycin]	0	3.1	0	0	0	> 10 µM		> 10 µM	> 10 µM	104%	100%	98.4%	97.2%	89.8%	102%	102%	87.4%	94.2%	58.7%	98.2%	100%	97.2%	104%	93.4%	97.6%	95.5%	94.6%	103%	91%	105%	90.6%	101%	107%	93.3%	> 10 µM
Oc1cccc(-c2c3nc(c(-c4cccc(O)c4)c4ccc([nH]4)c(-c4cccc(O)c4)c4nc(c(-c5cccc(O)c5)c5ccc2[nH]5)CC4)C=C3)c1 [temoporfin]	0	0.1	1.5	1.8	2.8	> 10 µM	> 10 µM	> 10 µM		90%	96.7%	104%	102%	91.6%	104%	105%	103%	106%	86.4%	99.3%	100%	98.1%	90.5%	77.6%	100%	104%	96.6%	98.9%	64.7%	96.2%	102%	94.3%	94.4%	61.4%	
c1ccc2[nH]c(-c3cscn3)nc2c1 [tiabendazole]	0	0	0			> 10 µM	> 10 µM	> 10 µM		105%	102%	103%	97.8%	110%	116%	104%	102%	97.2%	106%	93.2%	96.8%	102%	96.3%	106%											
